Source: the NIST ThermoML archive (doi:10.1021/je400529k)

Assays:
[1] = xn = mol fraction of the nth substance listed; details: 101 kPa, Liquid; for viscosity: Capillary tube (Ostwald / Ubbelohde) method; for mass density: Vibrating tube method
[2] = refractive index (Na D-line) (dimensionless); xn = mol fraction of the nth substance listed; details: 101 kPa, Liquid, Standard Abbe refractometry

CCC1CCCCC1 [ethylcyclohexane] + C1C[C@@H]2[C@H]3CC[C@H](C3)[C@@H]2C1
Details	mass density, [1] [kg/m3]	refractive index, [2]	viscosity, [1] [mPa·s]
293.15 K, x2 = 0	788.02	1.4319	0.845
293.15 K, x2 = 0.0997	803.52	1.4378	0.941
293.15 K, x2 = 0.2006	818.96	1.4437	1.052
293.15 K, x2 = 0.3001	834.08	1.4494	1.189
293.15 K, x2 = 0.4003	849.15	1.4551	1.344
293.15 K, x2 = 0.5001	863.99	1.4605	1.514
293.15 K, x2 = 0.6011	878.81	1.4667	1.726
293.15 K, x2 = 0.7	893.21	1.4717	1.965
293.15 K, x2 = 0.8001	907.54	1.4769	2.251
293.15 K, x2 = 0.8996	921.66	1.4824	2.593
298.15 K, x2 = 0	784.01	–	0.791
298.15 K, x2 = 0.0997	799.47	–	0.878
298.15 K, x2 = 0.2006	814.95	–	0.979
298.15 K, x2 = 0.3001	830.07	–	1.104
298.15 K, x2 = 0.4003	845.18	–	1.243
298.15 K, x2 = 0.5001	860.01	–	1.396
298.15 K, x2 = 0.6011	874.85	–	1.586
298.15 K, x2 = 0.7	889.26	–	1.8
298.15 K, x2 = 0.8001	903.61	–	2.055
298.15 K, x2 = 0.8996	917.75	–	2.358
303.15 K, x2 = 0	779.98	1.4276	0.743
303.15 K, x2 = 0.0997	795.44	1.4334	0.822
303.15 K, x2 = 0.2006	810.94	1.4389	0.914
303.15 K, x2 = 0.3001	826.06	1.4446	1.028
303.15 K, x2 = 0.4003	841.18	1.4506	1.155
303.15 K, x2 = 0.5001	856.03	1.4559	1.293
303.15 K, x2 = 0.6011	870.9	1.4617	1.464
303.15 K, x2 = 0.7	885.3	1.4674	1.656
303.15 K, x2 = 0.8001	899.67	1.4724	1.884
303.15 K, x2 = 0.8996	913.82	1.4776	2.155
308.15 K, x2 = 0	775.93	–	0.7
308.15 K, x2 = 0.0997	791.4	–	0.772
308.15 K, x2 = 0.2006	806.91	–	0.856
308.15 K, x2 = 0.3001	822.04	–	0.96
308.15 K, x2 = 0.4003	837.18	–	1.076
308.15 K, x2 = 0.5001	852.03	–	1.202
308.15 K, x2 = 0.6011	866.92	–	1.356
308.15 K, x2 = 0.7	881.34	–	1.53
308.15 K, x2 = 0.8001	895.72	–	1.735
308.15 K, x2 = 0.8996	909.89	–	1.976
313.15 K, x2 = 0	771.86	1.4225	0.661
313.15 K, x2 = 0.0997	787.34	1.4286	0.727
313.15 K, x2 = 0.2006	802.87	1.4343	0.804
313.15 K, x2 = 0.3001	818	1.4401	0.9
313.15 K, x2 = 0.4003	833.14	1.4458	1.005
313.15 K, x2 = 0.5001	848.02	1.4514	1.12
313.15 K, x2 = 0.6011	862.92	1.4572	1.261
313.15 K, x2 = 0.7	877.36	1.4625	1.417
313.15 K, x2 = 0.8001	891.76	1.4679	1.602
313.15 K, x2 = 0.8996	905.95	1.4732	1.82
318.15 K, x2 = 0	767.78	–	0.626
318.15 K, x2 = 0.0997	783.25	–	0.687
318.15 K, x2 = 0.2006	798.78	–	0.758
318.15 K, x2 = 0.3001	813.96	–	0.845
318.15 K, x2 = 0.4003	829.08	–	0.942
318.15 K, x2 = 0.5001	843.99	–	1.047
318.15 K, x2 = 0.6011	858.88	–	1.175
318.15 K, x2 = 0.7	873.35	–	1.317
318.15 K, x2 = 0.8001	887.8	–	1.485
318.15 K, x2 = 0.8996	901.99	–	1.682
